In ChEMBL document CHEMBL3885861, “Open TG-GATES”:

Organism: Rattus norvegicus
Assay: Open TG-GATES - Regimen: Daily Repeat
Format: toxicity, organism-based, Sprague-Dawley
Parameters: regimen Daily Repeat, gender Male, age 6 weeks
Conditions: in vivo, po, route gavage; for gamma-GTP / ALP / ALT / AST / BUN / CRE / Ca / DBIL / GLC / IP / K / LDH / Na / PL / RALB / TBIL / TC / TG / TP: tissue Plasma; for APTT / Bas / Eos / Fbg / Hb / Ht / Lym / MCH / MCHC / MCV / Mono / Neu / PT / Plat / RBC / Ret / WBC: tissue Blood; for KIDNEY_L / KIDNEY_R / KIDNEY_TOTAL: tissue Kidney; for LIVER: tissue Liver
[1] = 30 mg/kg, 72 h, dose level Middle, time 3 day
[2] = 30 mg/kg, […], dose level Middle, time 7 day
[3] = 30 mg/kg, […], dose level Middle, time 14 day
[4] = 30 mg/kg, […], dose level Middle, time 28 day
[5] = 100 mg/kg, 72 h, dose level High, time 3 day
[6] = 100 mg/kg, […], dose level High, time 7 day
[7] = 100 mg/kg, […], dose level High, time 14 day
[8] = 100 mg/kg, […], dose level High, time 28 day

CSc1ccc2c(c1)N(CCC1CCCCN1C)c1ccccc1S2 (configuration not stated) [THIORIDAZINE]
gamma-GTP (10 mg/kg, […], dose level Low, time 28 day): 1.4 IU/L
TERMINAL_BW [1]: 234.2 g
APTT [1]: 15.8 s
Bas [1]: 0%
Eos [1]: 1%
Fbg [1]: 219.8 mg/dL
Hb [1]: 14.1 g/dL
Ht [1]: 42.2%
Lym [1]: 79.6%
MCH [1]: 21.7 pg
MCHC [1]: 33.4%
MCV [1]: 64.9 fL
Mono [1]: 7%
Neu [1]: 12.6%
PT [1]: 11.9 s
Plat [1]: 110.7 x10_4/uL
RBC [1]: 651 x10_4/ul
Ret [1]: 8%
WBC [1]: 122.3 x10_2/uL
KIDNEY_L [1]: 1 g
KIDNEY_R [1]: 1.1 g
KIDNEY_TOTAL [1]: 2.1 g
LIVER [1]: 12.3 g
ALP [1]: 1002.8 IU/L
ALT [1]: 44 IU/L
AST [1]: 66.2 IU/L
BUN [1]: 19 mg/dL
CRE [1]: 0.5 mg/dL
Ca [1]: 11.3 mg/dL
DBIL [1]: 0.012 mg/dL
GLC [1]: 188 mg/dL
IP [1]: 9.3 mg/dL
K [1]: 4.9 meq/L
LDH [1]: 88.6 IU/L
Na [1]: 139 meq/L
PL [1]: 176.2 mg/dL
RALB [1]: 4.1 g/dL
TBIL [1]: 0.3 mg/dL
TC [1]: 92 mg/dL
TG [1]: 105.6 mg/dL
TP [1]: 6 g/dL
gamma-GTP [1]: 1.6 IU/L
TERMINAL_BW [2]: 271.1 g
TERMINAL_BW [3]: 301.4 g
TERMINAL_BW [4]: 394 g
APTT [2]: 15.4 s
Bas [2]: 0%
Eos [2]: 0.6%
Fbg [2]: 235.6 mg/dL
Hb [2]: 14.9 g/dL
Ht [2]: 44.8%
Lym [2]: 82.4%
MCH [2]: 21.1 pg
MCHC [2]: 33.2%
MCV [2]: 63.6 fL
Mono [2]: 5.8%
Neu [2]: 11%
PT [2]: 11.9 s
RBC [2]: 705.6 x10_4/ul
Ret [2]: 5.7%
WBC [2]: 139.8 x10_2/uL
APTT [3]: 16.2 s
Bas [3]: 0%
Eos [3]: 1%
Fbg [3]: 224.8 mg/dL
Hb [3]: 14.5 g/dL
Ht [3]: 41%
Lym [3]: 76.8%
MCH [3]: 22.1 pg
MCHC [3]: 37.1%
MCV [3]: 59.7 fL
Mono [3]: 8.4%
Neu [3]: 14.4%
PT [3]: 11.6 s
Plat [3]: 101.3 x10_4/uL
RBC [3]: 685.8 x10_4/ul
Ret [3]: 3.8%
WBC [3]: 148.2 x10_2/uL
APTT [4]: 18 s
Bas [4]: 0%
Eos [4]: 1%
Fbg [4]: 237.2 mg/dL
Hb [4]: 15.5 g/dL
Ht [4]: 46.8%
Lym [4]: 83%
MCH [4]: 19.6 pg
MCHC [4]: 33.3%
MCV [4]: 58.9 fL
Mono [4]: 5.8%
PT [4]: 11.9 s
Plat [4]: 106.6 x10_4/uL
RBC [4]: 795.4 x10_4/ul
Ret [4]: 5.4%
WBC [4]: 161 x10_2/uL
KIDNEY_L [2]: 1.2 g
KIDNEY_R [2]: 1.2 g
KIDNEY_TOTAL [2]: 2.3 g
KIDNEY_L [3]: 1.3 g
KIDNEY_R [3]: 1.3 g
KIDNEY_TOTAL [3]: 2.5 g
KIDNEY_L [4]: 1.4 g
KIDNEY_R [4]: 1.5 g
KIDNEY_TOTAL [4]: 2.9 g
LIVER [2]: 13.7 g
LIVER [3]: 14 g
LIVER [4]: 17.9 g
ALP [2]: 818.4 IU/L
ALT [2]: 37.4 IU/L
AST [2]: 64.2 IU/L
BUN [2]: 17.8 mg/dL
CRE [2]: 0.5 mg/dL
Ca [2]: 11.3 mg/dL
DBIL [2]: 0.008 mg/dL
GLC [2]: 183.8 mg/dL
IP [2]: 8.6 mg/dL
K [2]: 4.8 meq/L
LDH [2]: 84.8 IU/L
Na [2]: 138.6 meq/L
PL [2]: 174 mg/dL
RALB [2]: 4.1 g/dL
TBIL [2]: 0.3 mg/dL
TC [2]: 88.4 mg/dL
TG [2]: 124.8 mg/dL
TP [2]: 6.1 g/dL
gamma-GTP [2]: 1.8 IU/L
ALP [3]: 731.4 IU/L
ALT [3]: 34.6 IU/L
AST [3]: 65.8 IU/L
BUN [3]: 16.4 mg/dL
CRE [3]: 0.5 mg/dL
Ca [3]: 10.5 mg/dL
DBIL [3]: 0.02 mg/dL
GLC [3]: 179.2 mg/dL
IP [3]: 7.9 mg/dL
K [3]: 4.8 meq/L
LDH [3]: 103.2 IU/L
Na [3]: 139.4 meq/L
PL [3]: 159.4 mg/dL
RALB [3]: 4.1 g/dL
TBIL [3]: 0.3 mg/dL
TC [3]: 77.6 mg/dL
TG [3]: 139.8 mg/dL
TP [3]: 6.2 g/dL
gamma-GTP [3]: 1 IU/L
ALP [4]: 625.2 IU/L
ALT [4]: 39.8 IU/L
AST [4]: 66.2 IU/L
BUN [4]: 20.2 mg/dL
CRE [4]: 0.6 mg/dL
Ca [4]: 11 mg/dL
DBIL [4]: 0.002 mg/dL
GLC [4]: 183.2 mg/dL
IP [4]: 7.3 mg/dL
K [4]: 4.2 meq/L
LDH [4]: 152.2 IU/L
Na [4]: 140.2 meq/L
PL [4]: 159.4 mg/dL
RALB [4]: 4.2 g/dL
TBIL [4]: 0.3 mg/dL
TC [4]: 77.4 mg/dL
TG [4]: 122.6 mg/dL
TP [4]: 6.4 g/dL
gamma-GTP [4]: 1.6 IU/L
TERMINAL_BW [5]: 219.1 g
APTT [5]: 15.9 s
Bas [5]: 0%
Eos [5]: 1%
Fbg [5]: 196.2 mg/dL
Hb [5]: 13.9 g/dL
Ht [5]: 41.9%
Lym [5]: 81.4%
MCH [5]: 21.4 pg
MCHC [5]: 33.2%
MCV [5]: 64.4 fL
Mono [5]: 5.4%
Neu [5]: 12.2%
PT [5]: 11.9 s
Plat [5]: 117.8 x10_4/uL
RBC [5]: 651.2 x10_4/ul
Ret [5]: 6.1%
WBC [5]: 136.4 x10_2/uL
KIDNEY_L [5]: 1 g
KIDNEY_R [5]: 1 g
KIDNEY_TOTAL [5]: 2 g
LIVER [5]: 12.2 g
ALP [5]: 887.2 IU/L
ALT [5]: 40 IU/L
AST [5]: 63.2 IU/L
BUN [5]: 19.4 mg/dL
CRE [5]: 0.5 mg/dL
Ca [5]: 10.9 mg/dL
DBIL [5]: 0.062 mg/dL
GLC [5]: 187.6 mg/dL
IP [5]: 9.4 mg/dL
K [5]: 4.5 meq/L
LDH [5]: 158.8 IU/L
Na [5]: 139.8 meq/L
PL [5]: 164 mg/dL
RALB [5]: 4 g/dL
TBIL [5]: 0.2 mg/dL
TC [5]: 84 mg/dL
TG [5]: 92.4 mg/dL
TP [5]: 5.9 g/dL
gamma-GTP [5]: 1.6 IU/L
TERMINAL_BW [6]: 252.6 g
TERMINAL_BW [7]: 299.8 g
TERMINAL_BW [8]: 349.4 g
APTT [6]: 16.5 s
Bas [6]: 0%
Eos [6]: 0.2%
Fbg [6]: 213 mg/dL
Hb [6]: 14.3 g/dL
Ht [6]: 43.2%
Lym [6]: 80%
MCH [6]: 21.3 pg
MCHC [6]: 33.1%
MCV [6]: 64.2 fL
Mono [6]: 7.6%
Neu [6]: 12%
PT [6]: 12.3 s
Plat [6]: 98.4 x10_4/uL
RBC [6]: 672 x10_4/ul
Ret [6]: 4.6%
WBC [6]: 144.8 x10_2/uL
APTT [7]: 17.8 s
Bas [7]: 0%
Eos [7]: 0.8%
Fbg [7]: 242.8 mg/dL
Hb [7]: 15.2 g/dL
Ht [7]: 45.7%
Lym [7]: 75%
MCH [7]: 20.8 pg
MCHC [7]: 33.3%
MCV [7]: 62.5 fL
Mono [7]: 6%
Neu [7]: 18.2%
PT [7]: 11.9 s
Plat [7]: 112.1 x10_4/uL
RBC [7]: 733.4 x10_4/ul
Ret [7]: 4.4%
WBC [7]: 145.8 x10_2/uL
APTT [8]: 17.7 s
Bas [8]: 0%
Eos [8]: 0.6%
Fbg [8]: 225.4 mg/dL
Hb [8]: 15.6 g/dL
Ht [8]: 46.6%
Lym [8]: 80.4%
MCH [8]: 19.3 pg
MCHC [8]: 33.4%
MCV [8]: 57.7 fL
Mono [8]: 5.6%
Neu [8]: 13.8%
PT [8]: 12.5 s
Plat [8]: 92.7 x10_4/uL
RBC [8]: 808.8 x10_4/ul
Ret [8]: 2.5%
WBC [8]: 142.8 x10_2/uL
KIDNEY_L [6]: 1.2 g
KIDNEY_R [6]: 1.2 g
KIDNEY_TOTAL [6]: 2.3 g
KIDNEY_L [7]: 1.3 g
KIDNEY_R [7]: 1.3 g
KIDNEY_TOTAL [7]: 2.6 g
KIDNEY_L [8]: 1.4 g
KIDNEY_R [8]: 1.4 g
KIDNEY_TOTAL [8]: 2.8 g
LIVER [6]: 12.3 g
LIVER [7]: 13.6 g
LIVER [8]: 15.1 g
ALP [6]: 928.2 IU/L
ALT [6]: 34.2 IU/L
AST [6]: 64 IU/L
BUN [6]: 16 mg/dL
CRE [6]: 0.5 mg/dL
Ca [6]: 11.2 mg/dL
DBIL [6]: 0.008 mg/dL
GLC [6]: 199.8 mg/dL
IP [6]: 9.7 mg/dL
K [6]: 4.6 meq/L
LDH [6]: 100.2 IU/L
Na [6]: 141.6 meq/L
PL [6]: 166.8 mg/dL
RALB [6]: 3.8 g/dL
TBIL [6]: 0.4 mg/dL
TC [6]: 79 mg/dL
TG [6]: 132.4 mg/dL
TP [6]: 5.7 g/dL
gamma-GTP [6]: 1.4 IU/L
ALP [7]: 741.8 IU/L
ALT [7]: 30.4 IU/L
AST [7]: 61.2 IU/L
BUN [7]: 16.4 mg/dL
CRE [7]: 0.6 mg/dL
Ca [7]: 10.9 mg/dL
DBIL [7]: 0.02 mg/dL
GLC [7]: 178.2 mg/dL
IP [7]: 9.2 mg/dL
K [7]: 5.2 meq/L
LDH [7]: 189 IU/L
Na [7]: 142.8 meq/L
PL [7]: 152.2 mg/dL
RALB [7]: 4 g/dL
TBIL [7]: 0.4 mg/dL
TC [7]: 80.2 mg/dL
TG [7]: 83.4 mg/dL
TP [7]: 6.1 g/dL
gamma-GTP [7]: 1.4 IU/L
ALP [8]: 742.4 IU/L
ALT [8]: 35.4 IU/L
AST [8]: 55.8 IU/L
BUN [8]: 18.6 mg/dL
CRE [8]: 0.6 mg/dL
Ca [8]: 10.7 mg/dL
DBIL [8]: 0.006 mg/dL
GLC [8]: 176.4 mg/dL
IP [8]: 7.7 mg/dL
K [8]: 4.9 meq/L
LDH [8]: 115.4 IU/L
Na [8]: 142.6 meq/L
PL [8]: 160 mg/dL
RALB [8]: 4.1 g/dL
TBIL [8]: 0.2 mg/dL
TC [8]: 80.2 mg/dL
TG [8]: 111.4 mg/dL
TP [8]: 6.4 g/dL
gamma-GTP [8]: 1.6 IU/L
